These results are taken from patent publication US20180312463A1 (The Procter & Gamble Company, priority 2015, published 2018).

Counter-ions that a name gives are not always drawn.

One assay concerns the target human TRPM8 (UniProt Q8R4D5). The experiment in a line: TRPM8 Protocol-FLIPR Assay (EC50 analysis of sensate analogs using TRPM8 activation). The format is cell-based. The following applies: HEK-293 cells stably transfected with human TRPM8, intracellular Ca2+ by Fluo-4 AM fluorescence. On the procedure: (§1) The term “TRPM8 agonist”, as used herein, refers to any compound, which when added to a TRPM8 receptor, according to the FLIPR method, as discussed herein, produces any increase in fluorescence over background.
(§2) TRPM8 Protocol-FLIPR Assay
(§3) To determine whether TRPM8 is activated, the intracellular calcium ion (Ca^2+) level was measured from transfected cells with the TRPM8 receptor sequence (SEQ ID NO:). […] Trypsin was inactivated by addition of 8 ml growth medium. Cells were transferred to a 50 ml tube and centrifuged at 850 rpm for 3 minutes to remove medium. After centrifugation, a pellet of cells was formed in the bottom of the tube separating them from the supernatant solution. […] Fluo-4 AM is a fluorescent dye used for quantifying cellular Ca^2+ concentrations in the 100 nM to 1 microM range. At the end of 30 minutes, 45 ml of assay buffer (1× HBSS (Hank's Balanced Salt Solution), 20 mM HEPES (4-(2-Hydroxyethyl)-1-piperazineethanesulfonic acid)) was added to wash cells and the resulting mixture was then centrifuged at 850 rpm for 3 minutes to remove excess buffer and Fluo-4 AM calcium indicator.
(§4) The pelleted cells were re-suspended in 10 ml assay buffer and 90 μl aliquots (50,000 cells) per well delivered to a 96-well assay plate containing 10 μl of test compounds (1 mM in assay buffer, final concentration 100 μM) or buffer control and incubated at room temperature for 30 minutes. After 30 minutes, a plate was placed into a fluorometric imaging plate reader (FLIPR384 from Molecular Devices, Sunnyvale, Calif.) and basal fluorescence recorded (excitation wave length 488 nm and emission wave length 510 nm). Then 20 μl of 100 mM of TRPM8 agonist WS5 coolant in the assay buffer was added and fluorescence recorded. For determining the direct effect of test compounds on TRPM8, fluorescence was measured immediately after addition of each compound (TABLE 7).
The compound `CC(C)[C@@H]1CC[C@@H](C)C[C@H]1C(=O)NC[C@@H](N)c1ccccc1Cl` [Example 34, hydrochloride] returned an EC50 of 0.77 µM.
Turning to `CC(C)[C@@H]1CC[C@@H](C)C[C@H]1C(=O)NC[C@H](NC(=O)OC(C)(C)C)c1ccccc1` [Molecule 52], the “TRPM8 (EC50 values)” value was “Too high to measure”.
On the same count and under the same terms, next, `CC(C)[C@@H]1CC[C@@H](C)C[C@H]1C(=O)NCCNC(=O)[C@@H]1C[C@H](C)CC[C@H]1C(C)C` [Molecule 53]: “Too high to measure”; `CCCCCCCCCCCCCCCC(=O)N[C@H](CNC(=O)[C@@H]1C[C@H](C)CC[C@H]1C(C)C)c1ccccc1` [Molecule 54]: “Too high to measure”.
With `CC(C)[C@@H]1CC[C@@H](C)C[C@H]1C(=O)NC[C@@H](NC(=O)[C@@H](N)Cc1ccccc1)c1ccccc1` [Molecule 55], the “TRPM8 (EC50 values)” value is reported as “Too high to measure”.
Same read-out and setting: the same measure for `CC(C)[C@@H]1CC[C@@H](C)C[C@H]1C(=O)NCCN(CCN)CCN.Cl.Cl` [Molecule 56]: “Too high to measure”.
Still for that read-out and setting: the same measure for `CC(C)[C@@H]1CC[C@@H](C)C[C@H]1C(=O)NC[C@H](NC(=O)[C@@H](C)NC(=O)OC(C)(C)C)c1ccccc1` [Molecule 57]: “Too high to measure”; for `CC(C)[C@@H]1CC[C@@H](C)C[C@H]1C(=O)NC[C@@H](NC(=O)OC(C)(C)C)c1ccccc1` [Molecule 58]: “Too high to measure”; for `CC(C)[C@@H]1CC[C@@H](C)C[C@H]1C(=O)NC[C@@H](NC(=O)[C@@H](C)NC(=O)OC(C)(C)C)c1ccccc1` [Molecule 59]: “Too high to measure”.

For a further assay, the target named is human TRPM8. The assay is described as above. Format: cell-based. The following applies: HEK-293 cells stably transfected with human TRPM8, intracellular Ca2+ by Fluo-4 AM fluorescence. On the procedure:
as §1, §2, §3, §4
With `CC(C)[C@@H]1CC[C@@H](C)C[C@H]1C(=O)NC[C@@H](NC(=O)CN)c1ccccc1Cl`, the response was half-maximal at 0.02 µM (EC50).
`CC(C)[C@@H]1CC[C@@H](C)C[C@H]1C(=O)NC[C@@H](NC(=O)[C@H](C)N)C1CCCCC1` came in with a half-maximal effective concentration (EC50) of 0.0283 µM.
Regarding `CC(C)[C@@H]1CC[C@@H](C)C[C@H]1C(=O)NC[C@@H](NC(=O)[C@H](C)N)c1ccccc1` [Example 7], a half-maximal effect (EC50) was put at 0.009 µM.
On the same count and under the same terms, the same measure for `CC(C)[C@@H]1CC[C@@H](C)C[C@H]1C(=O)NC[C@H](Cc1ccccc1)NC(=O)CN` [Example 16]: 0.058 µM; for `CC(C)[C@@H]1CC[C@@H](C)C[C@H]1C(=O)NC[C@H](O)c1ccccc1` [Example 29]: 0.374 µM; for `CC(C)[C@@H]1CC[C@@H](C)C[C@H]1C(=O)NCCNC(=O)CNC(=O)OC(C)(C)C` [Example 49, tert-butyl (2-((2-((1R,2S,5R)-2-isopropyl-5-methylcyclohexane-1-carboxamido)ethyl)amino)-2-oxoethyl)carbamate]: 40 µM.
Still for that read-out and setting: next, `CC(C)[C@@H]1CC[C@@H](C)C[C@H]1C(=O)NC[C@@H](NC(=O)[C@H](C)N)c1ccccc1` [Molecule 2]: 0.0027 µM.

Still in this assay, the particulars now being: HEK-293 cells stably transfected with human TRPM8, unit inferred.
Take `CC(C)[C@@H]1CC[C@@H](C)C[C@H]1C(=O)NC[C@@H](NC(=O)[C@H](C)NC(=O)OC(C)(C)C)c1ccccc1` [Example 43, dihydrochloride]: the concentration giving a half-maximal response (EC50) was determined as 3 µM.
In turn, `CC(C)[C@@H]1CC[C@@H](C)C[C@H]1C(=O)NC[C@@H](NC(=O)CN)c1ccccc1` [Molecule 1] had an EC50 of less than 0.002 µM.

System in a further assay: not listed separately
Description: Sensory evaluation of coolant activity: panelists brushed with dentifrice and rated cooling intensity. Format: in vivo, human. The following applies: dentifrice, up to 12 hours after brushing. The procedure:
Dentifrices were prepared using conventional methods, such as the protocols described in U.S. Pat. No. 8,747,814, which contained no coolant (SAMPLE A) or having a coolant from TABLE 7 (SAMPLES B and C), in a flavor (peppermint) at 10 parts per million (ppm).
Sensory evaluation studies of coolant activity were conducted using a methodology patterned after the techniques described in M.C. Meilgaard, et al., Sensory Evaluation Techniques, 4th Ed. (2007). Five panelists brushed with a dentifrice from TABLE 8, having no coolant (SAMPLE A) or having a coolant from TABLE 7 (SAMPLES B and C), for two minutes, in a flavor (peppermint) at 10 parts per million (ppm). After brush expectoration, panelists then rinsed their mouth with 15 ml of an aqueous rinse and expectorated.
Turning to `CC(C)[C@@H]1CC[C@@H](C)C[C@H]1C(=O)NC[C@@H](NC(=O)[C@@H](C)N)c1ccccc1` [Molecule 17, (1R,2S,5R)-N-((S)-2-((R)-2-Aminopropanamido)-2-phenylethyl)-2-isopropyl-5-methylcyclohexane-1-carboxamide], the “cooling response over time after brushing (summary of TABLE 9)” value was “high cooling over the course of 12 hours”.
As for `CC(C)[C@@H]1CC[C@@H](C)C[C@H]1C(=O)NC[C@H](NC(=O)[C@@H](C)N)c1ccccc1` [Molecule 33, (1R,2S ,5R)-N-((R)-2-((R)-2-Aminopropanamido)-2-phenylethyl)-2-isopropyl-5-methylcyclohexane-1-carboxamide], the “cooling response over time after brushing (summary of TABLE 9)” value is recorded as “trailed off after 30 minutes”.

System in a further assay: not given
Test: not given
The following applies: in vivo; cited from earlier work.
On to `CC(C)[C@@H]1CC[C@@H](C)C[C@H]1O` [L-menthol], for which the “cooling threshold (concentration where the cooling effect could be clearly recognized)” value (“cooling threshold” for short) is given as “about 800 ppb”.
Consider `CC(C)[C@@H]1CC[C@@H](C)C[C@@H]1O` [Molecule 1-neomenthol, 1-neomenthol], for which the “cooling threshold” value is recorded as “about 3,000 ppb”.
Turning to `CC(C)[C@@H]1CC[C@@H](C)C[C@@H]1O` [d-neomenthol], the “cooling threshold” value is “about 25,000 ppb”.
